Data published in paper PMC12669040, “Tumour-specific STING agonist synthesis via a two-component prodrug system” (Nature Chemistry, 2025).
“And” between values parts separate entries of the source, which are not always exact repeats. Identical values can stand only once.

How the values were obtained:
[1] = Colorimetric alkylation rate constant assay with TNB^2− as non-specific thiol; assay type: physicochemical; design: second-order: unit not given here; conditions: for remaining [B]: in µM
[2] = Colorimetric alkylation rate constant assay with thiol N1; assay type: physicochemical; conditions: for remaining [A]: N1 from calibration curve (N1 in uM); for remaining [A] / remaining [B]: in µM
[3] = Time 2891 sec, [B]0 = 250, Replicates 1-3
[4] = Time 3071 sec, [B]0 = 250, Replicates 1-3
[5] = Time 3252 sec, [B]0 = 250, Replicates 1-3
[6] = Time 3433 sec, [B]0 = 250, Replicates 1-3
[7] = Time 3613 sec, [B]0 = 250, Replicates 1-3

## O=C(CCl)N1CCOCC1 [Compound C4]
[1]; Replicate 1, 723 sec, [B]0 = 250
  remaining [B]: 243.209
[1]; Replicate 1, 903 sec, [B]0 = 250
  remaining [B]: 242.478
[1]; Replicate 1, 1084 sec, [B]0 = 250
  remaining [B]: 241.798
[1]; Replicate 1, 1265 sec, [B]0 = 250
  remaining [B]: 241.104
[1]; Replicate 1, 1445 sec, [B]0 = 250
  remaining [B]: 240.437
[1]; Replicate 1, 1626 sec, [B]0 = 250
  remaining [B]: 239.756
[1]; Replicate 1, 1806 sec, [B]0 = 250
  remaining [B]: 239.088
[1]; Replicate 1, 1988 sec, [B]0 = 250
  remaining [B]: 238.42
[1]; Replicate 1, 2168 sec, [B]0 = 250
  remaining [B]: 237.79
[1]; Replicate 1, 2349 sec, [B]0 = 250
  remaining [B]: 237.085
[1]; Replicate 1, 2530 sec, [B]0 = 250
  remaining [B]: 236.392
[1]; Replicate 1, 2710 sec, [B]0 = 250
  remaining [B]: 235.737
[1]; Replicate 2, 542 sec, [B]0=250
  remaining [B]: 242.118
[1]; Replicate 2, 723 sec, [B]0=250
  remaining [B]: 241.425
[1]; Replicate 2, 903 sec, [B]0=250
  remaining [B]: 240.732
[1]; Replicate 2, 1084 sec, [B]0=250
  remaining [B]: 240.077
[1]; Replicate 2, 1265 sec, [B]0=250
  remaining [B]: 239.371
[1]; Replicate 2, 1445 sec, [B]0=250
  remaining [B]: 238.754
[1]; Replicate 2, 1626 sec, [B]0=250
  remaining [B]: 238.023
[1]; Replicate 2, 1806 sec, [B]0=250
  remaining [B]: 237.355
[1]; Replicate 2, 1988 sec, [B]0=250
  remaining [B]: 236.687
[1]; Replicate 2, 2168 sec, [B]0=250
  remaining [B]: 236.019
[1]; Replicate 2, 2349 sec, [B]0=250
  remaining [B]: 235.377
[1]; Replicate 2, 2530 sec, [B]0=250
  remaining [B]: 234.722
[1]; Replicate 2, 2710 sec, [B]0=250
  remaining [B]: 234.041
[1]; Replicate 3, 723 sec, [B]0=250
  remaining [B]: 243.07
[1]; Replicate 3, 903 sec, [B]0=250
  remaining [B]: 242.352
[1]; Replicate 3, 1084 sec, [B]0=250
  remaining [B]: 241.558
[1]; Replicate 3, 1265 sec, [B]0=250
  remaining [B]: 240.878
[1]; Replicate 3, 1445 sec, [B]0=250
  remaining [B]: 240.248
[1]; Replicate 3, 1626 sec, [B]0=250
  remaining [B]: 239.542
[1]; Replicate 3, 1806 sec, [B]0=250
  remaining [B]: 238.786
[1]; Replicate 3, 1988 sec, [B]0=250
  remaining [B]: 238.244
[1]; Replicate 3, 2168 sec, [B]0=250
  remaining [B]: 237.513
[1]; Replicate 3, 2349 sec, [B]0=250
  remaining [B]: 236.921
[1]; Replicate 3, 2530 sec, [B]0=250
  remaining [B]: 236.215
[1]; Replicate 3, 2710 sec, [B]0=250
  remaining [B]: 235.51
[1]; [3]
  second-order: 0.0007509 and 0.0006764 and 0.0006669
  remaining [B]: 234.892 and 235.081 and 233.424
[1]; [4]
  second-order: 0.000786 and 0.0007119 and 0.0007036
  remaining [B]: 234.187 and 234.35 and 232.743
[1]; [5]
  second-order: 0.0008202 and 0.000746 and 0.0007357
  remaining [B]: 233.519 and 233.72 and 232.088
[1]; [6]
  second-order: 0.0008541 and 0.0007785 and 0.0007706
  remaining [B]: 232.889 and 233.04 and 231.445
[1]; [7]
  second-order: 0.0008877 and 0.0008119 and 0.0008054
  remaining [B]: 232.246
[1]; Time 3794 sec, [B]0 = 250, Replicates 1-3
  second-order: 0.0009231 and 0.0008424 and 0.0008418
[1]; Time 3974 sec, [B]0 = 250, Replicates 1-3
  second-order: 0.0009567 and 0.0008773 and 0.0008752
[1]; Time 4155 sec, [B]0 = 250, Replicates 1-3
  second-order: 0.00099 and 0.0009118 and 0.0009131
[1]; Time 4336 sec, [B]0 = 250, Replicates 1-3
  second-order: 0.001024 and 0.0009453 and 0.0009474
[1]; Time 4516 sec, [B]0 = 250, Replicates 1-3
  second-order: 0.00106 and 0.0009785 and 0.000984
[1]; Time 4697 sec, [B]0 = 250, Replicates 1-3
  second-order: 0.001096 and 0.001013 and 0.001019
[1]; Time 4878 sec, [B]0 = 250, Replicates 1-3
  second-order: 0.001128 and 0.001047 and 0.001054
[1]; Time 5058 sec, [B]0 = 250, Replicates 1-3
  second-order: 0.001163 and 0.00108 and 0.001089
[1]; Time 5239 sec, [B]0 = 250, Replicates 1-3
  second-order: 0.001202 and 0.001118 and 0.001125
[1]; Time 5419 sec, [B]0 = 250, Replicates 1-3
  second-order: 0.001235 and 0.001153 and 0.001158
[1]; Time 5600 sec, [B]0 = 250, Replicates 1-3
  second-order: 0.001269 and 0.001184 and 0.001195
[1]; Time 5781 sec, [B]0 = 250, Replicates 1-3
  second-order: 0.001306 and 0.001219 and 0.001231
[1]; Time 5961 sec, [B]0 = 250, Replicates 1-3
  second-order: 0.001339 and 0.001252 and 0.001269
[2]; Replicate 1, time 576 sec
  remaining [A]: 78.3846
[2]; Replicate 1, time 576 sec, [B]0 = 250
  remaining [B]: 224.265
[2]; Replicate 1, time 576 sec, second-order plot value
  second-order: 0.001202
[2]; Replicate 1, time 606 sec
  remaining [A]: 77.4156
[2]; Replicate 1, time 606 sec, [B]0 = 250
  remaining [B]: 223.296
[2]; Replicate 1, time 606 sec, second-order plot value
  second-order: 0.001257
[2]; Replicate 2, time 576 sec
  remaining [A]: 78.0283
[2]; Replicate 2, time 576 sec, [B]0=250
  remaining [B]: 224.887
[2]; Replicate 2, time 576 sec, second-order plot value
  second-order: 0.001179
[2]; Replicate 2, time 606 sec
  remaining [A]: 77.1496
[2]; Replicate 2, time 606 sec, [B]0=250
  remaining [B]: 224.008
[2]; Replicate 2, time 606 sec, second-order plot value
  second-order: 0.00123
[2]; Replicate 3, time 576 sec
  remaining [A]: 79.3863
[2]; Replicate 3, time 576 sec, [B]0=250
  remaining [B]: 224.839
[2]; Replicate 3, time 576 sec, second-order plot value
  second-order: 0.001164
[2]; Replicate 3, time 606 sec
  remaining [A]: 78.4394
[2]; Replicate 3, time 606 sec, [B]0=250
  remaining [B]: 223.892
[2]; Replicate 3, time 606 sec, second-order plot value
  second-order: 0.001217
[2]; time 0 sec, [B]0 = 250, replicates 1-3
  remaining [B]: 247.294 and 246.181 and 246.372
[2]; time 0 sec, replicates 1-3
  second-order: 0.0001443 and 0.0001055 and 0.0001506
[2]; time 30 sec, [B]0 = 250, replicates 1-3
  remaining [B]: 245.834 and 244.471 and 245.125
[2]; time 30 sec, replicates 1-3
  second-order: 0.0001956 and 0.0001641 and 0.0002207
[2]; time 60 sec, [B]0 = 250, replicates 1-3
  remaining [B]: 244.264 and 243.246 and 243.566
[2]; time 60 sec, replicates 1-3
  second-order: 0.0002611 and 0.0002284 and 0.000272
[2]; time 91 sec, [B]0 = 250, replicates 1-3
  remaining [B]: 243.074 and 241.878 and 242.29
[2]; time 91 sec, replicates 1-3
  second-order: 0.0003157 and 0.0002781 and 0.0003304
[2]; time 121 sec, [B]0 = 250, replicates 1-3
  remaining [B]: 241.802 and 240.652 and 241.043
[2]; time 121 sec, replicates 1-3
  second-order: 0.0003702 and 0.0003322 and 0.0003836
[2]; time 151 sec, [B]0 = 250, replicates 1-3
  remaining [B]: 240.639 and 239.37 and 239.711
[2]; time 151 sec, replicates 1-3
  second-order: 0.0004294 and 0.0003825 and 0.0004404
[2]; time 182 sec, [B]0 = 250, replicates 1-3
  remaining [B]: 239.367 and 238.23 and 238.549
[2]; time 182 sec, replicates 1-3
  second-order: 0.0004821 and 0.0004386 and 0.0004918
[2]; time 212 sec, [B]0 = 250, replicates 1-3
  remaining [B]: 238.15 and 237.033 and 237.472
[2]; time 212 sec, replicates 1-3
  second-order: 0.0005317 and 0.0004932 and 0.0005467
[2]; time 242 sec, [B]0 = 250, replicates 1-3
  remaining [B]: 236.878 and 235.893 and 236.139
[2]; time 242 sec, replicates 1-3
  second-order: 0.0005943 and 0.0005514 and 0.0005999
[2]; time 273 sec, [B]0 = 250, replicates 1-3
  remaining [B]: 235.688 and 234.696 and 235.147
[2]; time 273 sec, replicates 1-3
  second-order: 0.0006417 and 0.0006068 and 0.0006568
[2]; time 303 sec, [B]0 = 250, replicates 1-3
  remaining [B]: 234.525 and 233.67 and 234.042
[2]; time 303 sec, replicates 1-3
  second-order: 0.0006954 and 0.000662 and 0.0007064
[2]; time 333 sec, [B]0 = 250, replicates 1-3
  remaining [B]: 233.361 and 232.444 and 232.88
[2]; time 333 sec, replicates 1-3
  second-order: 0.0007529 and 0.0007182 and 0.0007667
[2]; time 364 sec, [B]0 = 250, replicates 1-3
  remaining [B]: 232.279 and 231.447 and 231.944
[2]; time 364 sec, replicates 1-3
  second-order: 0.0007999 and 0.0007714 and 0.0008167
[2]; time 394 sec, [B]0 = 250, replicates 1-3
  remaining [B]: 231.17 and 230.25 and 230.782
[2]; time 394 sec, replicates 1-3
  second-order: 0.0008594 and 0.0008269 and 0.0008777
[2]; time 424 sec, [B]0 = 250, replicates 1-3
  remaining [B]: 230.115 and 229.224 and 229.847
[2]; time 424 sec, replicates 1-3
  second-order: 0.000908 and 0.0008806 and 0.000931
[2]; time 454 sec, [B]0 = 250, replicates 1-3
  remaining [B]: 228.924 and 228.283 and 228.77
[2]; time 454 sec, replicates 1-3
  second-order: 0.000965 and 0.0009423 and 0.0009806
[2]; time 485 sec, [B]0 = 250, replicates 1-3
  remaining [B]: 227.977 and 227.229 and 227.834
[2]; time 485 sec, replicates 1-3
  second-order: 0.001015 and 0.0009923 and 0.001037
[2]; time 515 sec, [B]0 = 250, replicates 1-3
  remaining [B]: 226.922 and 226.203 and 226.814
[2]; time 515 sec, replicates 1-3
  second-order: 0.001071 and 0.001049 and 0.001093
[2]; time 545 sec, [B]0 = 250, replicates 1-3
  remaining [B]: 225.813 and 225.205 and 225.879
[2]; time 545 sec, replicates 1-3
  second-order: 0.001123 and 0.001109 and 0.001148
